Laboratory results: patent publication US12435087B2, “Modulators of DCN-1 and methods of use thereof” (Cellarity, Inc., priority 2023, dated 2025)
Where two headings read alike, the source gives them in different places.

Experiments:
[1] = target: DCN1 (DCUND1) protein PONY domain (Homo sapiens (Human), UniProt Q96GG9); experiment: TR-FRET assay (binding to DCN-1, displacement of FAM-labeled probe)
Summary of the method: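 Compounds read at 1, 5 and 24 h, 0.1% final DMSO, by TR-FRET between terbium-streptavidin on biotinylated DCN1 PONY domain (E. coli) and a FAM-tagged non-covalent inhibitor probe. Two setups used, 5 nM protein with 20 nM labelled probe, or 0.31 nM protein with 100 nM labelled plus 800 nM unlabelled probe; buffer had TritonX and 200 mM NaCl. % activity relative to high (with probe) and low (without probe) controls.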

DCN1 protein = DCN1 protein (Homo sapiens (Human), UniProt Q96GG9); experiment: Intact protein MS analysis with the RapidFire-TOF system (covalent adduct formation); format: binding; settings: 400 nM DCN1, incubated at room temperature for 3 hours
Summary of the method: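 Tag-free His-TEV-DCN1 expressed in E. coli at 400 nM in 25 mM Tris-HCl, 200 mM NaCl, 1 mM DTT, incubated with 11 compound concentrations at room temperature for 3 h unless otherwise specified. Quenched with 0.2% formic acid; intact-protein RapidFire Q-TOF MS, deconvoluted to detect parent and compound-adduct masses.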

[2] = 24 hr after treatment with compound, read-out: TR FRET IC50 24 hr

DCN1 (DCUND1) protein PONY domain, sequence (Q96GG9 60-248): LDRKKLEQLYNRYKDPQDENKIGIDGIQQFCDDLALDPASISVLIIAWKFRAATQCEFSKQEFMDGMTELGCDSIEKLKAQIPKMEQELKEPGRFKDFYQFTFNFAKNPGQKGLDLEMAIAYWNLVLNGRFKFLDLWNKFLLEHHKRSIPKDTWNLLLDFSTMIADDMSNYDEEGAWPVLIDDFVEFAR
DCN1 protein, sequence (Q96GG9 whole entry): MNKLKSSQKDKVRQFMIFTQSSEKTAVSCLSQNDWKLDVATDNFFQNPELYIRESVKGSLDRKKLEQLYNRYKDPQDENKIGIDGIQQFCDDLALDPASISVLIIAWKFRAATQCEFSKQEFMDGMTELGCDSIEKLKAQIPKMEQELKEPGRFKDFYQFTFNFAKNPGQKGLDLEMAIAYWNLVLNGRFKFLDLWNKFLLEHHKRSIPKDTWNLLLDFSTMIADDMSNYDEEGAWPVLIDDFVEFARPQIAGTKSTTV

Row | Compound | IC50 [1, 2] | IC50 ([1]; read-out: TR FRET IC50 1 hr, 1 hr after treatment with compound) | Emax (DCN1 protein) | IC50 ([1]; TR FRET IC50 1 hr (nM), 1 hr after treatment with compound)
1 | C=C(CN1CCOCC1)C(=O)Nc1cccc([C@@H]2c3c(C)nn(-c4ccccc4)c3N(CC)C(=O)[C@H]2NC(=O)c2cccc(C(F)(F)F)c2)c1 [Compound I-2, N-((4R,5S)-7-ethyl-3-methyl-4-(3-(2-(morpholinomethyl)acrylamido)phenyl)-6-oxo-1-phenyl-4,5,6,7-tetrahydro-1H-pyrazolo[3,4-b]pyridin-5-yl)-3-(trifluoromethyl)benzamide] | ≤ 200 nM | ≤ 200 nM | 80 to 100% | 
2 | C/C=C(\CN1CCN(C2COC2)CC1)C(=O)Nc1cccc([C@@H]2c3cnn(-c4ccccc4)c3N(CC)C(=O)[C@H]2NC(=O)c2csc(C(F)(F)F)n2)c1 [Compound I-234, N-((4R,5S)-7-ethyl-4-(3-((E)-2-((4-(oxetan-3-yl)piperazin-1-yl)methyl)but-2-enamido)phenyl)-6-oxo-1-phenyl-4,5,6,7-tetrahydro-1H-pyrazolo[3,4-b]pyridin-5-yl)-2-(trifluoromethyl)thiazole-4-carboxamide] | ≤ 200 nM |  | 80 to 100% | ≤ 200 nM
